Article PMC5078040 (Oncotarget, 2016)
pEC50: −log10 of the molar value.

What was measured:
[1] = target: T1, CDK4-cyclinD3 (Homo sapiens, UniProt P11802); assay: KinomeScan; format: binding; conditions: 1uM
T1 construct: purchased DiscoveRx KINOMEscan

[2] = target: T2, MST1R (Homo sapiens, UniProt Q04912); assay: KinomeScan; format: binding; conditions: 1uM
T2 construct: purchased DiscoveRx KINOMEscan

[3] = target: T3, GAK (Homo sapiens, UniProt O14976); assay: KinomeScan; format: binding; conditions: 1uM
T3 construct: purchased DiscoveRx KINOMEscan

[4] = target: T4, KIT(A829P) (Homo sapiens, UniProt P10721, A829P); assay: KinomeScan; format: binding; conditions: 1uM
T4 construct: purchased DiscoveRx KINOMEscan

[5] = target: T5, PIK3CA(H1047L) (Homo sapiens, UniProt P42336, H1047L); assay: KinomeScan; format: binding; conditions: 1uM
T5 construct: purchased DiscoveRx KINOMEscan

[6] = target: T6, ICK (Homo sapiens, UniProt Q9UPZ9); assay: KinomeScan; format: binding; conditions: 1uM
T6 construct: purchased DiscoveRx KINOMEscan

[7] = target: T7, CAMKK1 (Homo sapiens, UniProt Q8N5S9); assay: KinomeScan; format: binding; conditions: 1uM
T7 construct: purchased DiscoveRx KINOMEscan

[8] = target: T8, CDK8 (Homo sapiens, UniProt P49336); assay: KinomeScan; format: binding; conditions: 1uM
T8 construct: purchased DiscoveRx KINOMEscan

[9] = target: T9, PAK4 (Homo sapiens, UniProt O96013); assay: KinomeScan; format: binding; conditions: 1uM
T9 construct: purchased DiscoveRx KINOMEscan

[10] = target: T10, ALK(C1156Y) (Homo sapiens, UniProt Q9UM73, C1156Y); assay: KinomeScan; format: binding; conditions: 1uM
T10 construct: purchased DiscoveRx KINOMEscan

[11] = target: T11, PIM3 (Homo sapiens, UniProt Q86V86); assay: KinomeScan; format: binding; conditions: 1uM
T11 construct: purchased DiscoveRx KINOMEscan

[12] = target: T12, SRPK1 (Homo sapiens, UniProt Q96SB4); assay: KinomeScan; format: binding; conditions: 1uM
T12 construct: purchased DiscoveRx KINOMEscan

[13] = target: T13, ERN1 (Homo sapiens, UniProt O75460); assay: KinomeScan; format: binding; conditions: 1uM
T13 construct: purchased DiscoveRx KINOMEscan

[14] = target: T14, PIK3CA(C420R) (Homo sapiens, UniProt P42336, C420R); assay: KinomeScan; format: binding; conditions: 1uM
T14 construct: purchased DiscoveRx KINOMEscan

[15] = target: T15, NEK4 (Homo sapiens, UniProt P51957); assay: KinomeScan; format: binding; conditions: 1uM
T15 construct: purchased DiscoveRx KINOMEscan

[16] = target: T16, FRK (Homo sapiens, UniProt P42685); assay: KinomeScan; format: binding; conditions: 1uM
T16 construct: purchased DiscoveRx KINOMEscan

[17] = target: T17, LCK (Homo sapiens, UniProt P06239); assay: KinomeScan; format: binding; conditions: 1uM
T17 construct: purchased DiscoveRx KINOMEscan

[18] = target: T18, CDKL5 (Homo sapiens, UniProt O76039); assay: KinomeScan; format: binding; conditions: 1uM
T18 construct: purchased DiscoveRx KINOMEscan

[19] = target: T19, FLT3(K663Q) (Homo sapiens, UniProt P36888, K663Q); assay: KinomeScan; format: binding; conditions: 1uM
T19 construct: purchased DiscoveRx KINOMEscan

[20] = target: T20, PKAC-beta (Homo sapiens, UniProt P22694); assay: KinomeScan; format: binding; conditions: 1uM
T20 construct: purchased DiscoveRx KINOMEscan

[21] = target: T21, DCAMKL2 (Homo sapiens, UniProt Q8N568); assay: KinomeScan; format: binding; conditions: 1uM
T21 construct: purchased DiscoveRx KINOMEscan

[22] = target: T22, MEK6 (Homo sapiens, UniProt P52564); assay: KinomeScan; format: binding; conditions: 1uM
T22 construct: purchased DiscoveRx KINOMEscan

[23] = target: T23, YSK4 (Homo sapiens, UniProt Q56UN5); assay: KinomeScan; format: binding; conditions: 1uM
T23 construct: purchased DiscoveRx KINOMEscan

[24] = target: T24, TNIK (Homo sapiens, UniProt Q9UKE5); assay: KinomeScan; format: binding; conditions: 1uM
T24 construct: purchased DiscoveRx KINOMEscan

[25] = target: T25, BRSK2 (Homo sapiens, UniProt Q8IWQ3); assay: KinomeScan; format: binding; conditions: 1uM
T25 construct: purchased DiscoveRx KINOMEscan

[26] = target: T26, TIE1 (Homo sapiens, UniProt P35590); assay: KinomeScan; format: binding; conditions: 1uM
T26 construct: purchased DiscoveRx KINOMEscan

[27] = target: T27, PIM2 (Homo sapiens, UniProt Q9P1W9); assay: KinomeScan; format: binding; conditions: 1uM
T27 construct: purchased DiscoveRx KINOMEscan

[28] = target: T28, ERBB4 (Homo sapiens, UniProt Q15303); assay: KinomeScan; format: binding; conditions: 1uM
T28 construct: purchased DiscoveRx KINOMEscan

[29] = target: T29, FLT3(N841I) (Homo sapiens, UniProt P36888, N841I); assay: KinomeScan; format: binding; conditions: 1uM
T29 construct: purchased DiscoveRx KINOMEscan

[30] = target: T30, SRC (Homo sapiens, UniProt P12931); assay: KinomeScan; format: binding; conditions: 1uM
T30 construct: purchased DiscoveRx KINOMEscan

[31] = target: T31, STK33 (Homo sapiens, UniProt Q9BYT3); assay: KinomeScan; format: binding; conditions: 1uM
T31 construct: purchased DiscoveRx KINOMEscan

[32] = target: T32, PRP4 (Homo sapiens, UniProt Q13523); assay: KinomeScan; format: binding; conditions: 1uM
T32 construct: purchased DiscoveRx KINOMEscan

[33] = target: T33, PIK3CA(E545K) (Homo sapiens, UniProt P42336, E545K); assay: KinomeScan; format: binding; conditions: 1uM
T33 construct: purchased DiscoveRx KINOMEscan

[34] = test system: Erk phosphorylation; assay: Signaling pathway effect examination (western blotting); format: cell-based, human
Description: (§1) The cells were collected and lysed, and cell lysates were analyzed by western blotting.

[35] = test system: 4EBP1 phosphorylation; assay: as above; format: cell-based, human; conditions: all of the cell lines
Description: as §1

[36] = test system: phosphorylation of Akt at both Thr308 and Ser473; assay: as above; format: cell-based, human; conditions: 1 hour
Description: as §1

[37] = test system: NF-kB P65 phosphorylation; assay: as above; format: cell-based, human; conditions: any of the tested cell lines
Description: as §1

[38] = test system: phosphorylation of PRAS40 GSK3b and FOXO1; assay: as above; format: cell-based, human; conditions: B-cell malignant cell lines
Description: as §1

[39] = target: T34, RIOK3 (Homo sapiens, UniProt O14730); assay: KinomeScan; format: binding; conditions: 1uM
T34 construct: purchased DiscoveRx KINOMEscan

[40] = target: T35, HIPK4 (Homo sapiens, UniProt Q8NE63); assay: KinomeScan; format: binding; conditions: 1uM
T35 construct: purchased DiscoveRx KINOMEscan

[41] = target: T36, AKT2 (Homo sapiens, UniProt P31751); assay: KinomeScan; format: binding; conditions: 1uM
T36 construct: purchased DiscoveRx KINOMEscan

T17 sequence (P06239 whole entry): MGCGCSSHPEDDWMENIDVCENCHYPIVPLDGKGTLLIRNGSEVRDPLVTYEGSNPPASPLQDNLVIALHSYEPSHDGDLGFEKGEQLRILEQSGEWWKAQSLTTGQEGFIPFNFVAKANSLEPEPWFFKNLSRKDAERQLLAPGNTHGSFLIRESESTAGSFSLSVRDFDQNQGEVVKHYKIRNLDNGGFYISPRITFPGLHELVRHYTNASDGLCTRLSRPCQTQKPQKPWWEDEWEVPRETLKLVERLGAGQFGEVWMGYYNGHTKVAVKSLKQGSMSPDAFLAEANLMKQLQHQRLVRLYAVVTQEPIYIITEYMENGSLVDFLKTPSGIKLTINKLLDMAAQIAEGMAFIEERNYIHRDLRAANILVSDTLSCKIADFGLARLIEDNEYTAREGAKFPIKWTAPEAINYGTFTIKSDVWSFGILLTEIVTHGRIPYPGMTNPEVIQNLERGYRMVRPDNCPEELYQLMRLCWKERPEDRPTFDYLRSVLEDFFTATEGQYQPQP
T26 sequence (P35590 22-1138): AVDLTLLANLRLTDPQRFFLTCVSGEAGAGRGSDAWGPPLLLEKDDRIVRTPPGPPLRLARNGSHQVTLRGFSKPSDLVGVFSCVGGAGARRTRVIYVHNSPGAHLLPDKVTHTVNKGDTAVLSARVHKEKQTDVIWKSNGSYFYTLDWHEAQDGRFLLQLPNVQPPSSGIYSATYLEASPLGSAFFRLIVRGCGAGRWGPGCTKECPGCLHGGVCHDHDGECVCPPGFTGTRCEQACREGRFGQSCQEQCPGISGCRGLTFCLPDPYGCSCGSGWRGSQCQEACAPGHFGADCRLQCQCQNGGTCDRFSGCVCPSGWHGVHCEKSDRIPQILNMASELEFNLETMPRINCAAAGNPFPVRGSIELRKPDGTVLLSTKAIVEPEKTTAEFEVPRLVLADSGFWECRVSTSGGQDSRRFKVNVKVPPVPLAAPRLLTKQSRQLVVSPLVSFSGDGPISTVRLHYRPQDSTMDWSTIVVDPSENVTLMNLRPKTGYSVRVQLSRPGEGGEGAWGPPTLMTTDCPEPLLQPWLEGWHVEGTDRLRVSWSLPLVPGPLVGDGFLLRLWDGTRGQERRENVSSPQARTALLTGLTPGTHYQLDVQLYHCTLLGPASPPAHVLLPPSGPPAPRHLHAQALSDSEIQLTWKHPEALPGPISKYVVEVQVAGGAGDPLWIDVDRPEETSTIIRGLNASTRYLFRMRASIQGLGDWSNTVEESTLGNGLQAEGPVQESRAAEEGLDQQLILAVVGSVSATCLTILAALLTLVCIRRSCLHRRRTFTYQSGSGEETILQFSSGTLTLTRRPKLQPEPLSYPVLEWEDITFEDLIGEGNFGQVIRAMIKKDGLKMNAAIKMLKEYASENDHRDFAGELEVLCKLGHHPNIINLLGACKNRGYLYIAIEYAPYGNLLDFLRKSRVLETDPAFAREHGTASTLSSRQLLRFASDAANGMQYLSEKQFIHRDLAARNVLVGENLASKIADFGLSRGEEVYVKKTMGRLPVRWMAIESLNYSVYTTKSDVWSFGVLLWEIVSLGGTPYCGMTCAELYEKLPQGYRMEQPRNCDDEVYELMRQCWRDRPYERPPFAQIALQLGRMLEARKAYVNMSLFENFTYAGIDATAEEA
T27 sequence (Q9P1W9 whole entry): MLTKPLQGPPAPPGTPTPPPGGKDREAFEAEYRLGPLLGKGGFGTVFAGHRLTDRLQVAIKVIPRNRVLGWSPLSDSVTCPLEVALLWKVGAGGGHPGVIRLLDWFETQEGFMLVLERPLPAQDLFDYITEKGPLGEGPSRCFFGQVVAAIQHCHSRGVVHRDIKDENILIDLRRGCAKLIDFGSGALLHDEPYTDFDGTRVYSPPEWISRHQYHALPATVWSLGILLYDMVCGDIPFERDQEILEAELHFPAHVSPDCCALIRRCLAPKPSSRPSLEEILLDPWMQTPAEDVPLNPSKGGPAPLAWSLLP
T2 sequence (Q04912 25-1400): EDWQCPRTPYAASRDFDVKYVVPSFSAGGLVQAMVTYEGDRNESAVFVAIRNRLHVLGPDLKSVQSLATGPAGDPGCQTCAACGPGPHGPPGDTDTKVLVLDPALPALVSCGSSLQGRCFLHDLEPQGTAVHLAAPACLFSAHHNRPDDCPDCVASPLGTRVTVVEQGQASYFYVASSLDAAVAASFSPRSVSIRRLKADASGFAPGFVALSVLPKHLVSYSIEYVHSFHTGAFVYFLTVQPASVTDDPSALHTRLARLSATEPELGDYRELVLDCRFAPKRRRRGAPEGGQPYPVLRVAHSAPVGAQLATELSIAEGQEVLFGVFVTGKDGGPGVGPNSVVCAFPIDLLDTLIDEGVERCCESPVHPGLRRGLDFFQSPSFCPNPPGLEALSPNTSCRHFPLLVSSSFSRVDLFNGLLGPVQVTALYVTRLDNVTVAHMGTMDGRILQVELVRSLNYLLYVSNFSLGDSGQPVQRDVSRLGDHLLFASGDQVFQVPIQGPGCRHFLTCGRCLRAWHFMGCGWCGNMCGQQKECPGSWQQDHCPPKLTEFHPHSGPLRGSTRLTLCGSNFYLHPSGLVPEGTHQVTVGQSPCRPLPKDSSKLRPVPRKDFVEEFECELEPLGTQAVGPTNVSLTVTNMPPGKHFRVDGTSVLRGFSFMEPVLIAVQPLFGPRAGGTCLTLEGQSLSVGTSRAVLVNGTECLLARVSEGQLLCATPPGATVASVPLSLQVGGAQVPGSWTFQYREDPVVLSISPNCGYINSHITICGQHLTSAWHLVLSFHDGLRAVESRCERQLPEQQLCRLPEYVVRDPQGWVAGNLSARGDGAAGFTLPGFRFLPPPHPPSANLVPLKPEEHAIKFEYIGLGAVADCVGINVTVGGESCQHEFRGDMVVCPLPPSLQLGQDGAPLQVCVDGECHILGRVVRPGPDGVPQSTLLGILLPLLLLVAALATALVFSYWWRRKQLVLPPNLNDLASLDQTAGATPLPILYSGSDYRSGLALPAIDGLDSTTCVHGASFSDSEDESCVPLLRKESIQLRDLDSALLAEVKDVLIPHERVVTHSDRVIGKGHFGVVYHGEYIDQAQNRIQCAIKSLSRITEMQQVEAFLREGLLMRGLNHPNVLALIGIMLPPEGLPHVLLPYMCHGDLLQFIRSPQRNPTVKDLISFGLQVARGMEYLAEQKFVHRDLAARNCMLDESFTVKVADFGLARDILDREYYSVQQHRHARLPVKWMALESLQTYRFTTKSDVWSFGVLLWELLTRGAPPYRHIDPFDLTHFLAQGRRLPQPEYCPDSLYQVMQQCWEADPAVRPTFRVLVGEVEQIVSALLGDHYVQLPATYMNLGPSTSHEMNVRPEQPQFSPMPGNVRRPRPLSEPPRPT
T35 sequence (Q8NE63 whole entry): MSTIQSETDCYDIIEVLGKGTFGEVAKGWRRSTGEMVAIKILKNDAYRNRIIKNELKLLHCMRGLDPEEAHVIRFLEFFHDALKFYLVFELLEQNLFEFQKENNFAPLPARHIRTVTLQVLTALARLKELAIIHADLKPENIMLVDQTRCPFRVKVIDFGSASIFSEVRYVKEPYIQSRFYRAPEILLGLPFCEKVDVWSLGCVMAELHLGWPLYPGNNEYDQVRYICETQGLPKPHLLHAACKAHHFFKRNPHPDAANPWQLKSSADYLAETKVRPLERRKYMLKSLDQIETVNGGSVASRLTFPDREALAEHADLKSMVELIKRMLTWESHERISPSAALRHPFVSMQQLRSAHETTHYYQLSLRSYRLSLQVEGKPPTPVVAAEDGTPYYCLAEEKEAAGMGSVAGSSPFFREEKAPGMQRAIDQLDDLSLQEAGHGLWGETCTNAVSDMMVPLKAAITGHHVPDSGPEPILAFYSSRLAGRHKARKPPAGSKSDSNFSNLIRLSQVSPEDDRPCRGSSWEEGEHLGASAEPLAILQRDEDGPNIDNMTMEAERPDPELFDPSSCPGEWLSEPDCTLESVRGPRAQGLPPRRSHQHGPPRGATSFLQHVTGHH
T4 sequence (P10721 26-976 A829P): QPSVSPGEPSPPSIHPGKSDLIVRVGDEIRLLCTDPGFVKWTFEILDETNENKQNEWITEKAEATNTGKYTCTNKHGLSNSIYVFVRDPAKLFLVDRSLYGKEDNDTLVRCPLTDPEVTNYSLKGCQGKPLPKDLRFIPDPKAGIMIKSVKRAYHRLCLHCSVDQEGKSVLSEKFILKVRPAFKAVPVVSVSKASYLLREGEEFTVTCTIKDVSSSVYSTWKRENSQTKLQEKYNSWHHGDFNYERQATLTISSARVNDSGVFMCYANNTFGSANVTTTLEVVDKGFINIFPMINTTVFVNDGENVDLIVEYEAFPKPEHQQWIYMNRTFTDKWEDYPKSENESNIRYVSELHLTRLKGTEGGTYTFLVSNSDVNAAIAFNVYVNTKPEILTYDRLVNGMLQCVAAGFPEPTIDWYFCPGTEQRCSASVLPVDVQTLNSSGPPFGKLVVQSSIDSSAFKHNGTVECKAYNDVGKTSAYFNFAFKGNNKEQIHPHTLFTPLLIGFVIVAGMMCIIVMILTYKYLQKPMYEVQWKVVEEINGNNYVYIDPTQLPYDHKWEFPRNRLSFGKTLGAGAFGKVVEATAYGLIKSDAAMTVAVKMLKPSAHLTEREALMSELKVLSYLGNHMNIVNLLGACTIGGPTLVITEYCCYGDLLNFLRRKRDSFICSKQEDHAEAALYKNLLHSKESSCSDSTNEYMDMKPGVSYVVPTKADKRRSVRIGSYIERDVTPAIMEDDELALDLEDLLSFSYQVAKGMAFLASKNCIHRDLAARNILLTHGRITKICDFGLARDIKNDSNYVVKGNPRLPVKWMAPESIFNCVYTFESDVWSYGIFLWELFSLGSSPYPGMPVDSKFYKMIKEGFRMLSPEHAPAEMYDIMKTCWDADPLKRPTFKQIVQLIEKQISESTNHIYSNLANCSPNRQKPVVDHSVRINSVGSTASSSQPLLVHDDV

Cc1nc(NC(=O)[C@@H](N)C(C)C)sc1-c1cnc(Cl)c(NS(=O)(=O)c2ccccc2)c1 [PI3KD-IN-015]
KinomeScan CDK4-cyclinD3 [1]: 100 | KinomeScan MST1R [2]: 86 | KinomeScan GAK [3]: 100 | KinomeScan KIT(A829P) [4]: 96 | KinomeScan PIK3CA(H1047L) [5]: 0 | KinomeScan ICK [6]: 95 | KinomeScan CAMKK1 [7]: 100 | KinomeScan CDK8 [8]: 100 | KinomeScan PAK4 [9]: 100 | KinomeScan ALK(C1156Y) [10]: 100 | KinomeScan PIM3 [11]: 100 | KinomeScan SRPK1 [12]: 93 | KinomeScan ERN1 [13]: 92 | KinomeScan PIK3CA(C420R) [14]: 4.5 | KinomeScan NEK4 [15]: 98 | KinomeScan FRK [16]: 97 | KinomeScan LCK [17]: 100 | KinomeScan CDKL5 [18]: 87 | KinomeScan FLT3(K663Q) [19]: 100 | KinomeScan PKAC-beta [20]: 87 | KinomeScan DCAMKL2 [21]: 100 | KinomeScan MEK6 [22]: 100 | KinomeScan YSK4 [23]: 100 | KinomeScan TNIK [24]: 95 | KinomeScan BRSK2 [25]: 100 | KinomeScan TIE1 [26]: 94 | KinomeScan PIM2 [27]: 72 | KinomeScan ERBB4 [28]: 98 | KinomeScan FLT3(N841I) [29]: 87 | KinomeScan SRC [30]: 91 | KinomeScan STK33 [31]: 88 | KinomeScan PRP4 [32]: 93 | KinomeScan PIK3CA(E545K) [33]: 6.4 | Erk phosphorylation ([34]; MOLM13 and HT cells): not in MOLM13 and HT | Erk phosphorylation ([34]; Namalwa, MEC-1, MEC-2 and HS505T cells): reduced | 4EBP1 phosphorylation [35]: not changed at all | pEC50 ([36]; Homo sapiens, CLL cell, HS505T (CLL) cells): > 6.00 | pEC50 ([36]; Homo sapiens, HT (B-NHL) cells): > 6.00 | pEC50 ([36]; Homo sapiens, MOLM-13 (AML) cells): > 6.00 | pEC50 ([36]; MEC-1 (CLL) cells): > 6.00 | pEC50 ([36]; MEC-2 (CLL) cells): > 6.00 | pEC50 ([36]; Namalwa (Burkitt Lymphoma) cells): > 6.00 | NF-kB P65 phosphorylation [37]: not inhibited | phosphorylation of Akt substrates PRAS40 GSK3b and FOXO1 [38]: decreased phosphorylation | KinomeScan RIOK3 [39]: 96 | KinomeScan HIPK4 [40]: 83 | KinomeScan AKT2 [41]: 86
